Test results reported in ChEMBL document CHEMBL5360640, “Liquiritigenin Confers Liver Protection by Enhancing NRF2 Signaling through Both Canonical and Non-canonical Signaling Pathways” (2023).
Activity calls are given as the source filed them. The rule behind the calls is not given here.

What was measured:
[1] = system: BNL CL.2; assay: Effect of ROS generation in cisplatin induced hepatotoxicity in mouse BNL CL.2 NRF2 knockout cells assessed as increase in ROS level treated at 40 uM for 24 hrs (reference value: 93.8%); type: functional
[2] = system: Mus musculus; assay: Hepatoprotective activity against cisplatin induced liver injury […] mouse model assessed as increase of NRF2 expression in liver tissue at 40 mg/kg, ip administered every 24 hrs for 72 hrs by IHC staining analysis; type: functional, organism-based
[3] = system: BNL CL.2; assay: Upregulation of NOTUM mRNA expression in mouse […] cells; type: functional, cell-based
[4] = system: BNL CL.2; assay: Effect of ROS generation in mouse BNL CL.2 cells incubated at 10 uM for 24 hrs (reference value: 9.42%); type: functional
[5] = molecular target: T1, Nuclear factor erythroid 2-related factor 2 (Mus musculus) (UniProt Q60795); assay: Activation of flag-tagged NRF2 in mouse BNL CL.2 cells in presence of wildtype His-tagged KEAP1 at 40 uM for 24 hrs followed by treatment with MG132 for 4 hrs by immunoblot assay; type: cell-based; details: filed as activator
T1 sequence (whole entry): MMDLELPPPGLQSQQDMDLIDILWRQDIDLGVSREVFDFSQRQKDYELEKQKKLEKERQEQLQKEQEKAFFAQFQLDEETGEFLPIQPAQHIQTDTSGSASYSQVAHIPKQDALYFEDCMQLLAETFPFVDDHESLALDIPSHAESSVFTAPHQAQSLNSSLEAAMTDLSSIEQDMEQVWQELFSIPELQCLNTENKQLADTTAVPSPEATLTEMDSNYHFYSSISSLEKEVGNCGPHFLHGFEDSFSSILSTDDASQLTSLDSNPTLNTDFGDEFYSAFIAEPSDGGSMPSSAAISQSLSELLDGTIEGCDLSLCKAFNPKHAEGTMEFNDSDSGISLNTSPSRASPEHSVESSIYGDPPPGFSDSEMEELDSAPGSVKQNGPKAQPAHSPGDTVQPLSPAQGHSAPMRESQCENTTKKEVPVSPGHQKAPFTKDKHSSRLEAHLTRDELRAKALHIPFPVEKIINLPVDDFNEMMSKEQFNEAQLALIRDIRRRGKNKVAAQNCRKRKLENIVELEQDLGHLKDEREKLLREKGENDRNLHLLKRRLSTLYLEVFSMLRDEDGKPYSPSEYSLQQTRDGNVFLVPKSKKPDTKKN

[6] = molecular target: T1, Nuclear factor erythroid 2-related factor 2 (Mus musculus); assay: Activation of NRF2 in mouse BNL CL.2 cells assessed as increase in Akr1c1 gene level upto 40 uM incubated upto 24 hrs by rt-qPCR analysis; type: cell-based; details: filed as activator
[7] = system: Mus musculus; assay: Hepatoprotective activity against cisplatin induced liver injury […] mouse model assessed as reduction of AST in serum at 40 mg/kg, ip administered every 24 hrs for 72 hrs; type: functional, organism-based
[8] = system: Mus musculus; assay: Hepatoprotective activity against cisplatin induced liver injury […] mouse model assessed as rescue of disorder arrangement of hepatic cord at 40 mg/kg, ip administered every 24 hrs for 72 hrs; type: functional, organism-based
[9] = system: BNL CL.2; assay: Effect of ROS generation in cisplatin induced hepatotoxicity in mouse BNL CL.2 cells assessed as increase in ROS level treated at 40 uM for 24 hrs (reference value: 83%); type: functional
[10] = system: BNL CL.2; assay: Effect of ROS generation in mouse BNL CL.2 NRF2 knockout cells assessed as increase in ROS level treated at 40 uM for 24 hrs (reference value: 10.6%); type: functional
[11] = system: BNL CL.2; assay: Inhibition of autophagy in mouse BNL CL.2 cells assessed as increase in p62 level incubated upto 80 uM for 24 hrs by immunoblotting analysis; type: functional, cell-based
[12] = molecular target: T1, Nuclear factor erythroid 2-related factor 2 (Mus musculus); assay: Activation of flag-tagged NRF2 in mouse BNL CL.2 cells in presence of His-tagged KEAP1 C151S mutant at 40 uM for 24 hrs followed by treatment with MG132 for 4 hrs by immunoblot assay; type: cell-based; details: filed as activator
[13] = system: Mus musculus; assay: Hepatoprotective activity against cisplatin induced liver injury […] mouse model assessed as no change in liver to body weight ratio at 40 mg/kg, ip administered every 24 hrs for 72 hrs; type: functional, organism-based
[14] = system: BNL CL.2; assay: Effect on KEAP1 level in mouse BNL CL.2 cells assessed as no change treated at 40 uM for 24 hrs by immunoblot analysis; type: functional, cell-based
[15] = molecular target: T1, Nuclear factor erythroid 2-related factor 2 (Mus musculus); assay: Activation of NRF2 in mouse BNL CL.2 cells treated for 8 to 24 hrs by immunoblot analysis; type: cell-based; details: filed as activator, dose 10-40 µM, time 8-24 hrs
[16] = system: BNL CL.2; assay: Inhibition of autophagy in mouse BNL CL.2 cells assessed as suppression of autophagosome formation by measuring reduction in yellow puncta incubated upto 80 uM for 24 hrs by immuno fluoroscence analysis; type: functional, cell-based
[17] = system: BNL CL.2; assay: Upregulation of CCDC122 mRNA expression in mouse […] cells; type: functional, cell-based
[18] = system: BNL CL.2; assay: Effect of ROS generation in mouse BNL CL.2 cells assessed as increase in ROS level treated at 40 uM for 24 hrs (reference value: 8.04%); type: functional
[19] = molecular target: T1, Nuclear factor erythroid 2-related factor 2 (Mus musculus); assay: Activation of NRF2 in mouse BNL CL.2 cells assessed as increase in Gclm gene level upto 40 uM incubated upto 24 hrs by rt-qPCR analysis; type: cell-based; details: filed as activator
[20] = system: BNL CL.2; assay: Effect of ROS generation in cisplatin induced hepatotoxicity in mouse BNL CL.2 NRF2 knockout cells assessed as increase in ROS level treated at 40 uM for 24 hrs; type: functional, cell-based
[21] = system: BNL CL.2; assay: Inhibition of autophagy in mouse BNL CL.2 cells assessed as suppression of autophagosome formation by measuring reduction in red puncta incubated upto 80 uM for 24 hrs by immuno fluoroscence analysis; type: functional, cell-based
[22] = system: Mus musculus; assay: In vivo activation of NRF2 in C57BL/6J mouse liver assessed as upregulation of NRF2 level administered at 40 mg/kg, ip 3 times in a day by immunohistochemistry analysis; type: functional, organism-based; details: filed as activator, time 1.0 day
[23] = system: BNL CL.2; assay: Inhibition of autophagy in mouse BNL CL.2 cells assessed as suppression of autolysosome formation by measuring reduction in red puncta incubated upto 80 uM for 24 hrs by immuno fluoroscence analysis; type: functional, cell-based
[24] = system: BNL CL.2; assay: Inhibition of autophagy in mouse BNL CL.2 cells assessed as suppression of autolysosome formation by measuring reduction in yellow puncta incubated upto 80 uM for 24 hrs by immuno fluoroscence analysis; type: functional, cell-based

Activity [5]: Active
Activity [6]: Active
Activity [12]: Active
Activity [15]: Dose-Dependent Effect
Activity [19]: Active
Compound: O=C1C[C@@H](c2ccc(O)cc2)Oc2cc(O)ccc21 [LIQUIRTIGENIN]
Activity [1]: 91.9%
Activity [2]: Active
Activity [3]: Active
Activity [4]: 9.8%
Activity [7]: Active
Activity [8]: Active
Activity [9]: 76%
Activity [10]: 8.04%
inhibition [11]: Active
Activity [13]: Active
Activity [14]: Active
inhibition [16]: Active
Activity [17]: Active
Activity [18]: 2.26%
Activity [20]: Active
inhibition [21]: Active
Activity [22]: Active
inhibition [23]: Active
inhibition [24]: Active
